Test systems include DLD-1; EKVX; HCT-15; HOP-62; Hs-578T; KM-20L2; LOX IMVI; MCF7; NCI-H23; NCI-H522; OVCAR-3; RPMI-8226; RXF 393; SK-MEL-2; SK-MEL-5; SK-OV-3; SNB-19; SNB-78; XF498; DMS-273.
Holding throughout (assay): inhibition of tumour cell growth, NCI panel, 48 h

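All cell lines were grown in 96-well plates and treated with compound for 48 hours. Abbreviation: GI50, concentration required for 50% inhibition of growth.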 Calls of active or inactive are those of the source. Cut-off read from the data, not from the text of the source: active = GI50 up to about 1.1 µM and inactive = higher. Where only a bound is given, the exact number is not on record here.

In the case of `CC(=O)OCC1OC(n2cc(F)c(=O)[nH]c2=O)C(OC(C)=O)C1OC(C)=O` (stereo not given), the GI50 was 15.4 µM (inactive) in the experiment on DLD-1; > 75.2 µM (inactive) in the experiment on EKVX; 13.7 µM in the experiment on HCT-15; 44 µM (inactive) in the experiment on HOP-62; > 59.3 µM (inactive) in the experiment on Hs-578T; 54.1 µM (inactive) in the experiment with KM-20L2. For the same molecule, the GI50 was 5.9 µM (inactive) in the experiment on LOX IMVI; 1.71 µM (inactive) in the experiment with MCF7; 75.2 µM (inactive) with NCI-H23; 16.6 µM (inactive) in the experiment with NCI-H522; 23.3 µM (inactive) in the experiment on OVCAR-3; 19.8 µM (inactive) with RPMI-8226. Also, the GI50 was 45.9 µM (inactive) in the experiment on RXF 393; 28.2 µM (inactive) in the experiment with SK-MEL-2; 56 µM (inactive) in the experiment with SK-MEL-5; > 73.5 µM (inactive) with SK-OV-3; 30.8 µM (inactive) in the experiment on SNB-19; > 100 µM (inactive) with SNB-78. Further, the GI50 in the experiment with XF498 is 4.57 µM (inactive).
Consider `O=C(O)COc1ccc(C(=O)/C(SS/C(C(=O)c2ccc(OCC(=O)O)c(Cl)c2Cl)=C2\C=C(c3ccccc3Cl)SS2)=C2/C=C(c3ccccc3Cl)SS2)c(Cl)c1Cl`, for which the GI50 with DLD-1 was 25 µM (inactive); in the experiment with DMS-273, 25.6 µM (inactive); in the experiment with EKVX, 40.6 µM (inactive); in the experiment with HCT-15, 21.7 µM; with HOP-62, 72.1 µM (inactive); with KM-20L2, 49.8 µM (inactive). Further, the GI50 is 9.89 µM (inactive) in the experiment on LOX IMVI; 22 µM (inactive) in the experiment with NCI-H23; 3.27 µM (inactive) in the experiment with NCI-H522; 17.9 µM (inactive) in the experiment on OVCAR-3; 18.3 µM (inactive) in the experiment with RPMI-8226; 23.2 µM (inactive) with SK-MEL-2. Moreover, the GI50 was 18.3 µM (inactive) in the experiment with SK-MEL-5; 44.1 µM (inactive) with SK-OV-3; 22.6 µM (inactive) with SNB-19; 16.9 µM (inactive) with SNB-78; 13.6 µM (inactive) in the experiment with XF498.
`CC1=C2C=CC(=O)C[C@@]2(C)CCC1`: the GI50 with DLD-1 is > 100 µM (inactive); with DMS-273, > 100 µM (inactive); in the experiment on EKVX, > 100 µM (inactive); in the experiment with HCT-15, greater than 100 µM; with HOP-62 it was > 100 µM (inactive); with LOX IMVI, > 100 µM (inactive). In addition, the GI50 with NCI-H23, with NCI-H522, in the experiment on OVCAR-3, in the experiment with RPMI-8226, in the experiment with RXF 393 and with SK-MEL-2 was > 100 µM (inactive) in each case. The GI50 with SK-MEL-5, in the experiment with SK-OV-3, in the experiment with SNB-19, with SNB-78 and with XF498 was > 100 µM (inactive) each time.
Take `CCCCC(C)/C=C/C(O)=C1\C(=O)O/C(=C\C(=O)O)C1=O` (stereo not given): the GI50 is > 100 µM (inactive) in the experiment with DMS-273; > 100 µM (inactive) in the experiment with EKVX; greater than 100 µM with HCT-15; > 100 µM (inactive) in the experiment with HOP-62; > 100 µM (inactive) in the experiment with KM-20L2; > 100 µM (inactive) in the experiment with LOX IMVI. Moreover, the GI50 with NCI-H23, with OVCAR-3, with RPMI-8226, in the experiment on SK-MEL-2, in the experiment with SK-MEL-5 and in the experiment on SK-OV-3 was > 100 µM (inactive) throughout. Moreover, the GI50 in the experiment on SNB-19, in the experiment on SNB-78 and in the experiment with XF498 was > 100 µM (inactive) in each case.
Regarding `CC(C)(O)[C@H](CCO)O[Si](c1ccccc1)(c1ccccc1)C(C)(C)C`, the GI50 is 8.93 µM (inactive) in the experiment on DLD-1; 10.1 µM (inactive) with DMS-273; 14.2 µM (inactive) with EKVX; 8.22 µM with HCT-15; 11.2 µM (inactive) with KM-20L2; 11.1 µM (inactive) in the experiment on LOX IMVI. Besides, the GI50 is > 10 µM (inactive) with NCI-H23; 6.67 µM (inactive) with NCI-H522; 11.1 µM (inactive) in the experiment on OVCAR-3; 10.4 µM (inactive) in the experiment on RPMI-8226; 15.1 µM (inactive) in the experiment with SK-MEL-2; 14.2 µM (inactive) in the experiment with SK-MEL-5. For the same molecule, the GI50 is 12.1 µM (inactive) in the experiment with SK-OV-3, 6.01 µM (inactive) in the experiment on SNB-19, 15 µM (inactive) with SNB-78 and 8.18 µM (inactive) with XF498.
Consider `COc1ccc2[nH]c3c(C)c4cc[n+](COC(=O)c5ccccc5)cc4c(C)c3c2c1`, for which the GI50 with HOP-62 was 2.66 µM (inactive); with KM-20L2, 0.282 µM (active); in the experiment on LOX IMVI, 0.21 µM (active); with NCI-H23, 0.428 µM (active); with NCI-H522, 0.391 µM (active); in the experiment with OVCAR-3, 1.48 µM (inactive). The GI50 in the experiment on RPMI-8226 was 0.144 µM (active); in the experiment on SK-OV-3, 1.22 µM (inactive); in the experiment on SNB-19, 0.713 µM (active); in the experiment on SNB-78, 0.897 µM (active); with XF498, 1.48 µM (inactive).
With `CCOc1ccc(NC(=O)C(=O)CC(=O)c2c[n+]([O-])c3cc(C)c(C)cc3[n+]2[O-])cc1`, the GI50 with DMS-273 is > 100 µM (inactive); in the experiment with EKVX, 90.8 µM (inactive); in the experiment with HCT-15 it was greater than 100 µM; in the experiment with HOP-62, > 100 µM (inactive); with KM-20L2 it was > 100 µM (inactive); with LOX IMVI, > 100 µM (inactive). The GI50 with NCI-H23, with NCI-H522, with OVCAR-3, with RPMI-8226, with RXF 393 and in the experiment on SK-MEL-2 was > 100 µM (inactive) in each case. For the same molecule, the GI50 with SK-MEL-5, in the experiment on SK-OV-3, in the experiment on SNB-19, in the experiment with SNB-78 and in the experiment on XF498 was > 100 µM (inactive) in each case.
`O=c1c2ccccc2nc(-c2ccccc2Cl)n1NCC1(O)OCC(O)C(O)C1O` (stereo not given): the GI50 in the experiment on DMS-273 is > 100 µM (inactive); in the experiment on EKVX, > 100 µM (inactive); in the experiment on HCT-15 it was greater than 100 µM; in the experiment with KM-20L2, > 100 µM (inactive); in the experiment on LOX IMVI it was > 100 µM (inactive); in the experiment with NCI-H23 it was > 100 µM (inactive). For the same molecule, the GI50 in the experiment with NCI-H522, with OVCAR-3, with RPMI-8226, in the experiment with RXF 393, with SK-MEL-2 and in the experiment on SK-MEL-5 was > 100 µM (inactive) in each case. Besides, the GI50 with SK-OV-3, with SNB-19, in the experiment on SNB-78 and in the experiment with XF498 was > 100 µM (inactive) each time.
Take `Cc1cc2oc(-c3ccccc3)c(C)c(=O)c2c2c1OC(C)(C)S2`: the GI50 with DLD-1 was 99.1 µM (inactive); in the experiment on DMS-273, 71.9 µM (inactive); in the experiment with EKVX, > 100 µM (inactive); in the experiment with HCT-15, greater than 100 µM; in the experiment with HOP-62, > 100 µM (inactive); in the experiment with KM-20L2, 55.5 µM (inactive). Besides, the GI50 in the experiment on LOX IMVI is > 100 µM (inactive); in the experiment with NCI-H23 it was > 100 µM (inactive); with NCI-H522 it was 72.3 µM (inactive); in the experiment with OVCAR-3, > 100 µM (inactive); with RPMI-8226, 47 µM (inactive); in the experiment with RXF 393 it was 70.3 µM (inactive). In addition, the GI50 with SK-MEL-2 was > 100 µM (inactive); in the experiment on SK-MEL-5, 68.7 µM (inactive); in the experiment with SK-OV-3, > 100 µM (inactive); in the experiment on SNB-19 it was > 100 µM (inactive); in the experiment on XF498 it was > 100 µM (inactive).
`COc1ccc(Nc2nc(C#N)c(N)s2)cc1`: the GI50 in the experiment on DLD-1 was 48.6 µM (inactive); in the experiment on DMS-273, 26.7 µM (inactive); in the experiment with HCT-15 it was 15.8 µM; with HOP-62 it was 46.8 µM (inactive); in the experiment with KM-20L2 it was 38.5 µM (inactive); in the experiment with LOX IMVI, 21.4 µM (inactive). In addition, the GI50 was 22.5 µM (inactive) with NCI-H23; 22.8 µM (inactive) with NCI-H522; > 100 µM (inactive) in the experiment on OVCAR-3; 18.8 µM (inactive) in the experiment on RPMI-8226; 33.4 µM (inactive) in the experiment with SK-MEL-2; 34 µM (inactive) in the experiment on SK-OV-3. Besides, the figures for the GI50 in the experiment with SNB-19, in the experiment on SNB-78 and with XF498 were 49 µM (inactive), > 100 µM (inactive) and 21.4 µM (inactive), respectively.
For `O=C(O)NC(c1ccccc1)C(NC(=O)c1ccccc1)c1ccccc1` (stereo not given), the GI50 was > 100 µM (inactive) in the experiment with DLD-1; > 100 µM (inactive) in the experiment on EKVX; greater than 100 µM in the experiment on HCT-15; > 100 µM (inactive) in the experiment with HOP-62; > 100 µM (inactive) with KM-20L2; 61.8 µM (inactive) with LOX IMVI. In addition, the GI50 in the experiment with NCI-H23, with OVCAR-3, with RPMI-8226, with RXF 393, with SK-MEL-2 and in the experiment on SNB-19 was > 100 µM (inactive) throughout. Also, the GI50 in the experiment with SNB-78 and in the experiment on XF498 was > 100 µM (inactive) in each case.
As for `CC(C)(C)Sc1nnc(SC(C)(C)C)c2c(SC(C)(C)C)nnc(O)c12`, the GI50 is 10.9 µM (inactive) in the experiment with DLD-1; 7.8 µM (inactive) with DMS-273; 12.1 µM (inactive) in the experiment on EKVX; 4.31 µM with HCT-15; 13.9 µM (inactive) in the experiment on HOP-62; 10.4 µM (inactive) in the experiment on KM-20L2. The GI50 in the experiment with LOX IMVI is 11.7 µM (inactive); in the experiment with NCI-H23 it was 10.9 µM (inactive); with NCI-H522 it was 3.61 µM (inactive); with OVCAR-3 it was 10.7 µM (inactive); in the experiment with RPMI-8226, 2.8 µM (inactive); in the experiment with RXF 393, 3.39 µM (inactive). For the same molecule, the GI50 in the experiment with SK-MEL-5 was 5.35 µM (inactive); in the experiment on SK-OV-3, 17.9 µM (inactive); with SNB-19, 11.6 µM (inactive); in the experiment on SNB-78, 12.2 µM (inactive); with XF498 it was 15.3 µM (inactive).
`CCOC(=O)C(C(=O)OCC)P(=S)(S)c1ccccc1` (stereo not given): the GI50 with DLD-1, in the experiment on DMS-273, in the experiment with EKVX, in the experiment on HOP-62, with KM-20L2 and in the experiment with LOX IMVI was > 100 µM (inactive) throughout. Further, the GI50 with NCI-H23, in the experiment with NCI-H522, in the experiment with RXF 393, with SK-MEL-2, in the experiment with SK-MEL-5 and in the experiment on SK-OV-3 was > 100 µM (inactive) in each case. The GI50 with SNB-19 and in the experiment with XF498 was > 100 µM (inactive) throughout.

Values taken from ChEMBL document CHEMBL1201862, “PubChem BioAssay data set” (2004).
